Assays:
Conditions in all cases: 2 h
Liver microsome [1] = test: Metabolic stability in human liver microsomes at 10 uM up to 120 mins by HPLC analysis; type: ADME
[2] = Metabolic stability in mouse liver microsomes at 10 uM up to 120 mins by HPLC analysis; type: ADME
Liver microsome [3] = test: Metabolic stability in dog liver microsomes at 10 uM up to 120 mins by HPLC analysis; type: ADME, Canis lupus familiaris

Row | Stability (Liver microsome [1]) | Stability [2] | Stability (Liver microsome [3]) | SMILES
1 | Stable | Stable | Stable | Nc1ncc(-c2nc(N3CCOCC3)c3cccn3n2)cn1
2 | Stable | Stable | Stable | c1cc(-c2nc(N3CCOCC3)c3cccn3n2)c2cn[nH]c2c1
3 | Stable | Stable | Stable | COCc1ccc2c(N3CCOCC3)nc(-c3cnc(N)nc3)nn12
